Experiments:
Abuthilon theophrasti = assay: Post-emergence application in field trials, ABUTH; format: in vivo; conditions: ABUTH growth stage 14-16
Protocol: (§1) In the examples below, using the method of S. R. Colby (1967) “Calculating synergistic and antagonistic responses of herbicide combinations”, Weeds 15, p. 22ff., the value E, which is expected if the activity of the individual active compounds is only additive, was calculated:
(§2) [formula] • where • X=percent activity using active herbicide A at an application rate a; • Y=percent activity using active herbicide B (i.e. isoxaflutole) at an application rate b; • E=expected activity (in %) by A+B at application rates a+b.
(§3) If the value found experimentally is higher than the value E calculated according to Colby, a synergistic effect is present.
(§4) On field test sites, natural weed infestation or seeded weeds were treated post-emergence of the weeds.
(§5) In the field trials, the weeds were treated as indicated below.
(§6) In the following experiments, the herbicidal activity for the individual herbicidal compositions (solo and mixture applications) was assessed at the indicated days after treatment (DAT). The assessments for the damage on undesired weeds caused by the composition was carried out using a scale from 0 to 100%, compared to the untreated control plants. Here, 0 means no damage and 100 means complete destruction of the plants.
(§7) Herbicide A-1 and isoxaflutole (240 g/l SC, Balance Flexx®) were, together with addition of 0.25 v/v % MSO (methylated sed oil) as adjuvant, formulated in water as distribution medium (water volume 200 l/ha) and sprayed with commercial flat fan nozzles.

Amaranthus hybridus = assay: Post-emergence application in field trials, AMACH; format: in vivo; conditions: Table 1.1; AMACH growth stage 35; 21 DAT; 100 g ai/ha
Protocol: as §1, §2, §3, §4, §5
as §6, with “the plants. […]” for “the plants.”

Amaranthus retroflexus = assay: Post-emergence application in field trials, AMARE; format: in vivo
Protocol: as §1, §2, §3, §4, §5, §6, §7
(§8) Herbicide A-1, isoxaflutole (240 g/l SC), saflufenacil (342 g/l) and pyroxasulfone were, together with addition of 0.25 v/v % MSO (methylated sed oil) as adjuvant, formulated in water as distribution medium (water volume 200 l/ha) and sprayed with commercial flat fan nozzles.

Spermacoce latifolia = assay: Post-emergence application in field trials, BOILF; format: in vivo; conditions: Table 1.1; BOILF growth stage 40; 21 DAT; 100 g ai/ha
Protocol: as §1, §2, §3, §4, §5, §6
Herbicide A-1 and isoxaflutole (75% WG) were, together with addition of 0.5 v/v % MSO (methylated sed oil) as adjuvant, formulated in water as distribution medium (water volume 200 l/ha) and sprayed with commercial flat fan nozzles.

Datura stramonium = assay: Post-emergence application in field trials, DATST; format: in vivo; conditions: 100 g ai/ha
Protocol: as §1, §2, §3, §4, §5, §6
(§9) Herbicide A-1 and isoxaflutole (240 g/l SC) were, together with addition of 0.25 v/v % MSO (methylated sed oil) as adjuvant, formulated in water as distribution medium (water volume 200 l/ha) and sprayed with commercial flat fan nozzles.
(§10) Herbicide A-1, isoxaflutole (240 g/l SC) and saflufenacil (342 g/l) were, together with addition of 0.25 v/v % MSO (methylated sed oil) as adjuvant, formulated in water as distribution medium (water volume 200 l/ha) and sprayed with commercial flat fan nozzles.

Echinochloa crus-galli = assay: Post-emergence application in field trials, ECHCG; format: in vivo
Protocol: as §1, §2, §3, §4, §5, §6, §9, §7, §10, §8

Euphorbia heterophylla = assay: Post-emergence application in field trials, EPHHL; format: in vivo; conditions: Table 1.1; EPHHL growth stage 35; 21 DAT; 100 g ai/ha
Protocol: as §1, §2, §3, §4, §5
as §6, with “the plants. […]” for “the plants.”

Glycine max = assay: Post-emergence application in field trials, GLXMA; format: in vivo; conditions: GLXMA growth stage 13, 100 g ai/ha
Protocol: as §1, §2, §3, §4, §5, §6, §9

Hordeum vulgare = assay: Post-emergence application in field trials, HORVX; format: in vivo; conditions: HORVX growth stage 23-29
Protocol: as §1, §2, §3, §4, §5, §6, §7

Ipomoea triloba = assay: Post-emergence application in field trials, IPOTR; format: in vivo; conditions: Table 1.1; IPOTR growth stage 35; 21 DAT; 100 g ai/ha
Protocol: as §1, §2, §3, §4, §5
as §6, with “the plants. […]” for “the plants.”

Lolium multiflorum = assay: Post-emergence application in field trials, LOLMU; format: in vivo; conditions: LOLMU height 20-25 cm, 100 g ai/ha
Protocol: as §1, §2, §3, §4, §5, §6, §8

Setaria verticillata = assay: Post-emergence application in field trials, SETVE; format: in vivo; conditions: SETVE growth stage 21-23
Protocol: as §1, §2, §3, §4, §5, §6, §9, §7

Zea mays = assay: Post-emergence application in field trials, ZEAMX; format: in vivo
Protocol: as §1, §2, §3, §4, §5, §6, §9, §7, §10, §8

HORVW = assay: Post-emergence application in field trials, HORVW; format: in vivo, Hordeum vulgare; conditions: HORVW height 20-25 cm, 100 g ai/ha
Protocol: as §1, §2, §3, §4, §5, §6, §8

In the case of `CS(=O)(=O)c1cc(C(F)(F)F)ccc1C(=O)c1cnoc1C1CC1` [B, isoxaflutole], the “% herbicidal activity” value (Abuthilon theophrasti; Table 3.1, 7 DAT, 56 g ai/ha) was 40%, the “% herbicidal activity” value (Abuthilon theophrasti; Table 3.2, 21 DAT, 56 g ai/ha) was 45% and the “% herbicidal activity” value (Abuthilon theophrasti; Table 3.2, 21 DAT, 80 g ai/ha) was 65%. For the same compound, the “% herbicidal activity” value (Abuthilon theophrasti; Table 3.4, 42 DAT, 56 g ai/ha) was 45%, the “% herbicidal activity” value (Abuthilon theophrasti; Table 3.4, 42 DAT, 80 g ai/ha) was 60% and the “% herbicidal activity” value (Amaranthus hybridus) was 30%. For the same compound, the “% herbicidal activity” value (Amaranthus retroflexus; Table 3.4, AMARE growth stage 31-49, 42 DAT, 80 g ai/ha) was 45%, the “% herbicidal activity” value (Amaranthus retroflexus; Table 5.4, AMARE height 8-20 cm, 7 DAT, 100 g ai/ha) was 30% and the “% herbicidal activity” value (Spermacoce latifolia) was 27%. For the same compound, the “% herbicidal activity” value (Datura stramonium; Table 2.1, DATST growth stage 14-16, 7 DAT) was 25%, the “% herbicidal activity” value (Datura stramonium; Table 2.3, DATST growth stage 14-16, 21 DAT) was 50% and the “% herbicidal activity” value (Datura stramonium; Table 4.2, DATST growth stage 14-16, height 5-10 cm, 42 DAT) was 50%. The “% herbicidal activity” value (Echinochloa crus-galli; Table 2.1, ECHCG growth stage 23-30, 7 DAT, 100 g ai/ha) was 40%, the “% herbicidal activity” value (Echinochloa crus-galli; Table 3.1, ECHCG growth stage 23-30, 7 DAT, 80 g ai/ha) was 70% and the “% herbicidal activity” value (Echinochloa crus-galli; Table 3.2, ECHCG growth stage 23-30, 21 DAT, 56 g ai/ha) was 80%. For the same compound, the “% herbicidal activity” value (Echinochloa crus-galli; Table 3.2, ECHCG growth stage 23-30, 21 DAT, 80 g ai/ha) was 80%, the “% herbicidal activity” value (Echinochloa crus-galli; Table 4.1, ECHCG growth stage 23-30, height 15-20 cm, 7 DAT, 100 g ai/ha) was 40% and the “% herbicidal activity” value (Echinochloa crus-galli; Table 5.4, ECHCG height 15-20 cm, 7 DAT, 100 g ai/ha) was 40%. The “% herbicidal activity” value (Euphorbia heterophylla) was 22%, the “% herbicidal activity” value (Glycine max; Table 2.1, 7 DAT) was 25% and the “% herbicidal activity” value (Glycine max; Table 2.2, 21 DAT) was 35%. The “% herbicidal activity” value (Glycine max; Table 2.3, 21 DAT) was 40%, the “% herbicidal activity” value (Hordeum vulgare; Table 3.1, 7 DAT, 56 g ai/ha) was 10% and the “% herbicidal activity” value (Hordeum vulgare; Table 3.1, 7 DAT, 80 g ai/ha) was 10%. For the same compound, the “% herbicidal activity” value (Hordeum vulgare; Table 3.2, 21 DAT, 56 g ai/ha) was 10%, the “% herbicidal activity” value (Hordeum vulgare; Table 3.2, 21 DAT, 80 g ai/ha) was 10% and the “% herbicidal activity” value (Ipomoea triloba) was 19%. The “% herbicidal activity” value (Lolium multiflorum; Table 5.4, 7 DAT) was 20%, the “% herbicidal activity” value (Lolium multiflorum; Table 5.8, 21 DAT) was 20% and the “% herbicidal activity” value (Setaria verticillata; Table 2.1, 7 DAT, 100 g ai/ha) was 20%. The “% herbicidal activity” value (Setaria verticillata; Table 3.4, 42 DAT, 56 g ai/ha) was 20%, the “% herbicidal activity” value (Zea mays; Table 2.1, ZEAMX growth stage 15-16, 7 DAT, 100 g ai/ha) was 10% and the “% herbicidal activity” value (Zea mays; Table 3.2, ZEAMX growth stage 15-16, 21 DAT, 56 g ai/ha) was 0%. The “% herbicidal activity” value (Zea mays; Table 3.2, ZEAMX growth stage 15-16, 21 DAT, 80 g ai/ha) was 0%, the “% herbicidal activity” value (Zea mays; Table 3.3, ZEAMX growth stage 15-16, 28 DAT, 56 g ai/ha) was 0% and the “% herbicidal activity” value (Zea mays; Table 4.1, ZEAMX growth stage 15-16, height 25-30 cm, 7 DAT, 100 g ai/ha) was 10%. The “% herbicidal activity” value (Zea mays; Table 5.12, 7 DAT, height 25-30 cm, B 100 g ai/ha) was 10%, the “% herbicidal activity” value (Zea mays; Table 5.4, ZEAMX height 25-30 cm, 7 DAT, 100 g ai/ha) was 10% and the “% herbicidal activity” value (Zea mays; Table 5.5, ZEAMX height 25-30 cm, 21 DAT, 100 g ai/ha) was 7%. For the same compound, the “% herbicidal activity” value (Zea mays; Table 5.6, ZEAMX height 25-30 cm, 28 DAT, 100 g ai/ha) was 0%, the “% herbicidal activity” value (Zea mays; Table 5.7, ZEAMX height 25-30 cm, 7 DAT, 100 g ai/ha) was 10% and the “% herbicidal activity” value (Zea mays; Table 5.8, ZEAMX height 25-30 cm, 21 DAT, 100 g ai/ha) was 7%. The “% herbicidal activity” value (Zea mays; Table 5.9, ZEAMX height 25-30 cm, 28 DAT, 100 g ai/ha) was 0%, the “% herbicidal activity” value (HORVW; Table 5.5, 21 DAT) was 10% and the “% herbicidal activity” value (HORVW; Table 5.6, 28 DAT) was 10%. For the same compound, the “% herbicidal activity” value (HORVW; Table 5.8, 21 DAT) was 10%.

Source: US12616201B2, “Herbicidal compositions comprising isoxaflutole” (BASF SE, priority 2024, dated 2026)
